In patent US20090099167A1, “Organic compounds” (Novartis Institutes for Biomedical Research, priority 2004, published 2009):
Read-outs that look alike come from different tables or passages of the source.

Molecular target: T1, human insulin receptor (Ins-R) (Homo sapiens, UniProt P06213)
T1 construct: encoding the amino acid region 919-1343 of the intra-cytoplasmic kinase domain of the human insulin receptor; made in house; host or cells: baculovirus (Bac-to-Bac)
Experiment: Ins-R tyrosine kinase assay, GST-Ins-R
Format: biochemical
Source text: The inhibition of IGF-1R and Ins-R can be determined as follows: The baculovirus donor vector pfbgx3IGFIRcd is used to generate a recombinant baculovirus that expresses the amino acid region 950-1337 of the mature peptide cytoplasmic domain of the human IGF-IR. To generate the cDNA fragment encoding the amino acid region 919-1343 of the intra-cytoplasmic kinase domain of the human insulin receptor, pC5hInsR is used. The fragments of the human IGF-IR and Ins-R are cloned, expressed and small-scale purified as a factor Xa-cleavable glutathione-S-transferase (GST)-fusion protein using the Bac-to-Bac™ system (GIBCO BRL) of recombinant baculovirus generation. Virus containing media is collected from the transfected cell culture and used for infection to increase its titer. Virus containing media obtained after two rounds of infection is used for large-scale protein expression. Cell extracts are prepared and loaded onto a glutathione-Sepharose (Pharmacia) column. After washing, the GST-tagged proteins are then eluted with a glutathione-containing buffer. Purified protein is stored at −70° C. in elution buffer. Tyrosine protein kinase assays with purified GST-IGF-1R and GST-ins-R are carried in a final volume of 30 μl containing 20 mM Tris-HCl, pH 7.6, 10 mM MgCl2, 0.01 mM Na3VO4, 1% DMSO, 1 mM DTT, 3 μg/ml poly(Glu,Tyr) 4:1 and 10 μM ATP (γ-[^33P]-ATP 0.1 μCi). The assay is performed in 96-well plates at ambient temperature for 20 min and terminated by addition of 25 μl 0.05 M EDTA pH 7.0. An aliquot of 40 μl is spotted with a multichannel dispenser on Whatman P81 membranes mounted in a Millipore Microtiter filter manifold connected to a low vacuum source. After elimination of liquid, the membrane is transferred to a sequence of 4 washing baths containing 0.5% H3PO4 and one with EtOH (shaking incubation for 10 min each), dried, mounted onto a Hewlett Packard TopCount manifold added 10 μl Microscint® and counted. Compounds of formula (I) show up to 90% inhibition of Ins-R at 10,000 nM, preferably between 60-90% inhibition. The inhibition of Tek can be determined as follows: The procedure of the expression, purification and assay these kinases has been described. Fabbro et al., Pharmacol. Ther. 82(2-3) 293-301 (1999). In brief, the glutathione S-transferase (GST) gene from the pAcG1 vector (Pharmingen) is excised with EcoRV and EcoRI and inserted into the cloning site of the Fast-Bac baculoviral vector (GIBCO) creating a 5530 bp vector with N-terminal cloning sites derived from the pAcG1 fusion vector (FBG0). The C-terminal cloning site may be any cloning site (from the Fast-Bac vector) downstream of the N-terminal cloning site used. N-terminally GST-fused (pAcG1, Pharmingen) KDR, Flt-1, Flk-1, Tek and PDGFR-β kinase domains are obtained from ProQinase, Freiburg, Germany. Tek is recloned into the FBG1 vector by EcoRI excision and ligation into EcoRI digested FBG1 (FBG1-Tek). The coding sequences for the whole cytoplasmic domain of c-Kit (aa 544-976) and c-Fms (aa 538-972) are amplified by PCR from human uterus and from human bone marrow cDNA libraries (Clontech), respectively. The amplified DNA fragments are fused to GST by cloning them into FBG1 as BamHI-EcoRI insertions, to yield FBG1-c-Kit and FBG1-c-Fms. Tek is recloned into the FBG0 transfer vector by EcoRI excision and ligation into EcoRI digested FBG0 (FBG-Tie2/Tek). FGFR-1 and c-met kinase domains are obtained by PCR from human A431 cells. N-terminal primers contain an overhanging EcoRI site, while C-terminal primers contain a XhoI site to aid cloning into the transfer vectors. After digestion of both the PCR fragments and FBG0 the cleavage products are gel-purified and ligated together to form the kinase constructs (FBG-Met, FBG-FGFR-1).

[1] = Table 5, read-out: Ins-R, IC50 class

T1 sequence (P06213 958-1382 limits assumed): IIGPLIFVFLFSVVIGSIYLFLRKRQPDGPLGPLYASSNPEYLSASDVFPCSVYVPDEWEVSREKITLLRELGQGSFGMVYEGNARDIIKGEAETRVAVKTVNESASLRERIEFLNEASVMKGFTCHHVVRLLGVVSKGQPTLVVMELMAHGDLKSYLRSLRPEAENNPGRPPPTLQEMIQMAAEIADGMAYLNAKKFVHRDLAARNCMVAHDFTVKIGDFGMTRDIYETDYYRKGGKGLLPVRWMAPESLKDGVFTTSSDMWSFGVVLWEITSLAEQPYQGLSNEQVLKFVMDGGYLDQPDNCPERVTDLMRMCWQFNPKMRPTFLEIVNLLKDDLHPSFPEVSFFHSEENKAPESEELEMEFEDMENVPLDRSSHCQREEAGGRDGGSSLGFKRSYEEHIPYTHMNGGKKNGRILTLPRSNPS

Row | SMILES | IC50 (Table 4, read-out: Ins-R, activity (IC50 for kinase inhibition)) | IC50 [1]
1 | CN1CCN(c2ccc(-c3cnn4c(N)c(-c5cccc(O)c5)cnc34)cc2)CC1 [Example 1, 3-{7-Amino-3-[4-(4-methyl-piperazin-1-yl)-phenyl]-pyrazolo[1,5-a]pyrimidin-6-yl}-phenol] | < 10 µM | –
2 | Cc1nc2c(-c3cccc(N4CCN(C)CC4)c3)cnn2c(N)c1-c1ccc(F)cc1 [Example 80, 6-(4-Fluoro-phenyl)-5-methyl-3-[3-(4-methyl-piperazin-1-yl)-phenyl]-pyrazolo[1,5-a]pyrimidin-7-ylamine] | – | > 10 µM
3 | Cc1nc2c(-c3ccc(N4CCN(C)CC4)cc3)cnn2c(N)c1-c1ccc(F)c(Cl)c1 [Example 83, 6-(3-Chloro-4-fluoro-phenyl)-5-methyl-3-[4-(4-methyl-piperazin-1-yl)-phenyl]-pyrazolo[1,5-a]pyrimidin-7-ylamine] | – | > 10 µM
4 | COc1ccc(-c2cnn3c(N)c(-c4cccc(Cl)c4)c(C)nc23)cc1 [Example 88, 6-(3-Chloro-phenyl)-3-(4-methoxy-phenyl)-5-methyl-pyrazolo[1,5-a]pyrimidin-7-ylamine] | – | > 10 µM
5 | Cc1nc2c(-c3cccc(N4CCN(CCO)CC4)c3)cnn2c(N)c1-c1cccc(Cl)c1 [Example 90, 2-(4-{3-[7-Amino-6-(3-chloro-phenyl)-5-methyl-pyrazolo[1,5-a]pyrimidin-3-yl]-phenyl}-piperazin-1-yl)-ethanol] | – | > 10 µM

Second part, the compound after the results:

Row | IC50 (Table 4, read-out: Ins-R, activity (IC50 for kinase inhibition)) | IC50 [1] | SMILES
6 | – | 1 to 10 µM | Cc1nc2c(-c3cccc(N4CCN(C)CC4)c3)cnn2c(N)c1-c1cccc(Cl)c1 [Example 72, 6-(3-Chloro-phenyl)-5-methyl-3-[3-(4-methyl-piperazin-1-yl)-phenyl]-pyrazolo[1,5-a]pyrimidin-7-ylamine]
7 | – | > 10 µM | Cc1nc2c(-c3ccc(N4CCN(C)CC4)cc3)cnn2c(N)c1-c1cccc(Cl)c1 [Example 73, 6-(3-Chloro-phenyl)-5-methyl-3-[4-(4-methyl-piperazin-1-yl)-phenyl]-pyrazolo[1,5-a]pyrimidin-7-ylamine]
8 | – | 1 to 10 µM | COc1cc(N2CCN(C)CC2)ccc1-c1cnn2c(N)c(-c3cccc(O)c3)cnc12 [Example 76, 3-{7-Amino-3-[2-methoxy-4-(4-methyl-piperazin-1-yl)-phenyl]-pyrazolo[1,5-a]pyrimidin-6-yl}-phenol]
